Assay results as given in patent US20260345596A1, “TREATMENT OF LOCALLY ADVANCED OR METASTATIC UROTHELIAL CARCINOMA WITH ERDAFINITIB” (priority 2023, published 2026).
Entries after “also recorded” stand apart in the source; their conditions may differ.

Tests used:
[1] = tested on: bacteria; assay: Bacterial reverse mutation (Ames) assay
[2] = tested on: locally advanced or metastatic urothelial carcinoma with FGFR alterations; assay: Study BLC3001 (NCT03390504, THOR) Cohort 1: efficacy of erdafitinib versus chemotherapy; assay type: in vivo, human
Procedure: Subjects are assigned to Cohort 1 or Cohort 2 based upon prior treatment with an anti-PD-(L)1 agent. […] Cohort 1 and Cohort 2 are assessed independently.
Each potential subject must satisfy all of the following criteria to be enrolled in the study: • 1. ≥18 years of age (or the legal age of consent in the jurisdiction in which the study is taking place) • 2. […] Minor components (<50% overall) of variant histology such as glandular or squamous differentiation, or evolution to more aggressive phenotypes such as sarcomatoid or micropapillary change are acceptable • 3. Metastatic or surgically unresectable urothelial cancer • 4. Documented progression of disease, defined as any progression that requires a change in treatment, prior to randomization • 5. Prior treatment with an anti-PD-(L)1 agent as monotherapy or as combination therapy; no more than 2 prior lines of systemic treatment. […] These subjects will however still be eligible only for Cohort 1.
Each dose should be taken at approximately the same time each day, with or without food. The study drug is to be taken with approximately 240 mL (8 ounces) of water. The tablets should be swallowed intact and subjects should not attempt to dissolve them in water, tablets must not be broken or chewed. Subjects should avoid consuming grapefruit or Seville oranges due to CYP450 3A4/5 inhibition.
No concomitant treatment is required for these subjects.
Subjects randomized to chemotherapy in Arm 1B (see FIG. 1) receive vinflunine 320 mg/m2 as a 20-minute intravenous infusion once every 3 weeks or docetaxel 75 mg/m2 as a 1-hour intravenous infusion every 3 weeks. Treatment with either agent will be administered until disease progression, intolerable toxicity, withdrawal of consent or decision by the investigator to discontinue treatment.
The primary endpoint is OS. The primary efficacy analysis is based on the Intent-to-Treat (ITT) population that includes all randomized subjects in each cohort. The Kaplan-Meier method is used to estimate the distribution of OS for each treatment group within each cohort. The stratified log-rank test is used to compare survival curves of OS between the 2 treatment arms. The stratification factors to be used in the analysis are as follows: region (North America vs EU vs rest of world), ECOG performance status (0 or 1 vs 2), and disease distribution (presence vs absence of visceral metastases: lung, liver, or bone). Pre-specified strata combining will be implemented when some strata have too few OS events.
The secondary efficacy endpoints are PFS, ORR (achievement of objective response), and Safety. Secondary end points also included DOR, change from baseline in patient reported outcomes (Functional Assessment of Cancer Therapy—Bladder Cancer, Patient-Global Impression of Severity, and the European Quality of Life—5 Dimensions—5 Levels). PFS is analyzed the same as OS. Kaplan-Meier method is used to estimate the distribution of DOR. ORR is analyzed by Cochran-Mantel-Haenszel chi-square test for randomized subjects with measurable disease at baseline. The analyses of the secondary efficacy endpoints include all randomized subjects (ITT subjects) unless otherwise specified. The family-wise type 1 error is strongly controlled at 5% (2-sided) for the secondary efficacy endpoints.
Ophthalmologic examination at baseline included an Amsler grid test, optical coherence tomography scan (OCT), and ophthalmologic evaluation. An Amsler grid test was conducted at every cycle. Repeat OCT was done as clinically indicated based on the Amsler grid test or clinical assessment.
O'Brien-Fleming boundaries were applied, implemented by the Lan-DeMets spending function for a total Type I error of 0.05. […] Stopping for futility was possible if the hazard ratio at the interim analysis exceeded 1.0, considering the totality of the data.
Descriptive subgroup analyses were conducted, but with no adjustment for multiplicity.

[3] = tested on: rats; assay: 3-month repeat-dose toxicity study, female reproductive organs; settings: exposure less than human AUC at maximum recommended dose
[4] = Protein binding in patients; settings: human, in vivo
[5] = Solubility

SMILES: COc1cc(OC)cc(N(CCNC(C)C)c2ccc3ncc(-c4cnn(C)c4)nc3c2)c1 [Erdafitinib, N-(3,5-dimethoxyphenyl)-N′-(1-methylethyl)-N-[3-(1-methyl-1H-pyrazol-4-yl)quinoxalin-6-yl]ethane-1,2-diamine]
- Mutagenicity (Ames) [1]: not mutagenic
- Disease control rate (CR + PR + SD) ([2]; ITT): 112 (82.4%) n (%)
- Progression-free survival (PFS): number of events (%) ([2]; ITT): 101 (74.3%) number (%)
- Overall Survival (OS): number of events (%) ([2]; ITT, 8 mg oral once daily, up-titration to 9 mg, chemotherapy docetaxel or vinflunine): 77 (56.6%) number (%)
- Objective response rate, ORR (CR + PR) ([2]; ITT, RECIST v1.1, investigator): 62 (45.6%) n (%)
- OS events (deaths) ([2]; ITT, at data cut, ~75% information fraction, count): 77
- PFS events ([2]; ITT, at data cut, count): 101
- Not evaluable (NE) ([2]; ITT, best overall response): 10 (7.4%) n (%)
- Progressive disease (PD) ([2]; ITT, best overall response): 14 (10.3%) n (%)
- Complete response, CR (%) ([2]; ITT, best overall response, RECIST v1.1, investigator): 9 (6.6%) n (%)
- Complete response (CR) ([2]; ITT, investigator): 6.6%
- Partial response (PR) ([2]; ITT, investigator): 39.0%
- Patients alive at 6 months ([2]; estimated, (95% CI)): 85% (95% CI, 77 to 90)
- Patients alive at 12 months ([2]; estimated, (95% CI)): 51% (95% CI, 41 to 60)
- Median overall survival (years) ([2]; mUC and FGFR alt after prior anti-PD-(L)1): about 1 year
- Improvement of disease control rate ([2]; versus chemotherapy): about 39%
- Objective response outcome in words ([2]; versus chemotherapy): approximately a four-fold higher probability of achieving an objective response; also recorded: The superiority of Erdafitinib relative to chemotherapy, in terms of ORR, was established; also recorded: significantly greater for Erdafitinib, with similar DOR; also recorded: generally consistent in the subgroups evaluated
- Overall survival outcome in words ([2]; versus chemotherapy): The superiority of Erdafitinib relative to chemotherapy, in terms of OS, was established; also recorded: generally consistent across clinically meaningful subgroups including age group, FGFR alteration type, baseline ECOG PS, presence/absence of visceral metastases and PD-L1 status; also recorded: significantly prolonged or extended OS compared to chemotherapy; also recorded: consistent across clinically relevant subgroups; also recorded: significantly longer with erdafitinib versus chemotherapy; also recorded: significantly prolonged median overall survival compared with chemotherapy
- Progression-free survival outcome in words ([2]; versus chemotherapy): The superiority of Erdafitinib relative to chemotherapy, in terms of PFS, was established; also recorded: significantly prolonged PFS; also recorded: generally consistent in the subgroups evaluated
- Confirmed complete response (CR) ([2]; ≥2 consecutive assessments): 5.1%
- Confirmed partial response (PR) ([2]; ≥2 consecutive assessments): 30.1%
- Dose proportionality of exposure (Cmax and AUC) (0.5 to 12 mg, single and repeat once daily dosing): increased proportionally across the dose range of 0.5 to 12 mg
- Effect of food on exposure (high-fat and high-calorie meal): No clinically meaningful differences in erdafitinib exposure
- Time to steady state (once daily dosing): 2 weeks
- Effect of age, sex, race, body weight, hepatic or renal impairment on exposure (specific populations): No clinically meaningful effects on erdafitinib exposure were observed based on age (21-92 years), sex, race (White, Hispanic or Asian), body weight (36-166 kg), mild (Child-Pugh A) or moderate (Child-Pugh B) hepatic impairment, or mild to moderate renal impairment (eGFR 30 to 89 mL/min/1.73 m^2)
- Effects on female reproductive organs [3]: showed effects on female reproductive organs (necrosis of the ovarian corpora lutea)
- fraction unbound [4]: 0.003
- Solubility in organic solvents ([5]; organic solvents): practically insoluble, or insoluble to freely soluble in organic solvents
- Solubility across the pH range of 1 to 7.4 ([5]; pH 1 to 7.4): adequate solubility across the pH range of 1 to 7.4
- Solubility in aqueous media ([5]; wide range of pH values): slightly soluble to practically insoluble, or insoluble in aqueous media over a wide range of pH values
